Columns and labels:
OVCAR-4 = assay type: cell-based; conditions: OVCAR-4, Ovarian
OVCAR-5 = conditions: OVCAR-5, Ovarian
UACC-62 = conditions: UACC-62, Melanoma
UO-31 = conditions: UO-31, Renal
M14 = assay type: cell-based; conditions: M14, Melanoma
[1] = DPPH radical scavenging assay; conditions: 25 µM test compound, 0.1 mM DPPH, acetonitrile, 30 min
In short: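 Compounds at 25 µM in acetonitrile mixed 1:2 with 0.1 mM DPPH in acetonitrile, kept 30 min in the dark at room temperature. Absorbance read at 517 nm; % scavenging = (Ac − As)/Ac × 100, Ac being DPPH blank. Ascorbic acid positive control.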

BT-549 = assay type: cell-based; conditions: BT-549, Breast
K-562 = conditions: K-562, Leukemia
786-0 = conditions: 786-0, Renal
RXF 393 = conditions: RXF 393, Renal
SK-MEL-2 = conditions: SK-MEL-2, Melanoma
SK-MEL-5 = conditions: SK-MEL-5, Melanoma
MCF7 = conditions: MCF7, Breast
SK-OV-3 = conditions: SK-OV-3, Ovarian
COLO 205 = conditions: COLO 205, Colon
SW-620 = conditions: SW-620, Colon
HT29 = conditions: HT29, Colon
SF-295 = conditions: SF-295, CNS
SNB-19 = assay type: cell-based; conditions: SNB-19, CNS
DU-145 = conditions: DU-145, Prostate
RPMI-8226 = conditions: RPMI-8226, Leukemia
OVCAR-8 = conditions: OVCAR-8, Ovarian
[2] = read-out: 50% lethal concentration (LC50)

C=C1CCC2C3(C)COC(c4cn(-c5ccccc5)nc4-c4ccc(OC)cc4)OC3CCC2(C)C1CC=C1C(=O)OCC1O (centres unmarked) [1j]
GI50 (OVCAR-4): 1.72 µM
Total growth inhibition (TGI) (OVCAR-4): 4.23 µM
CC50 (OVCAR-4; [2]): > 100 µM
GI50 (OVCAR-5): 1.86 µM
Total growth inhibition (TGI) (OVCAR-5): 4.21 µM
CC50 (OVCAR-5; [2]): 9.52 µM
GI50 (UACC-62): 1.91 µM
Total growth inhibition (TGI) (UACC-62): 4.26 µM
CC50 (UACC-62; [2]): 9.48 µM
GI50 (NCI/ADR-RES; Ovarian): 1.94 µM
Total growth inhibition (TGI) (NCI/ADR-RES; Ovarian): 4.41 µM
CC50 (NCI/ADR-RES; read-out: 50% lethal concentration (LC50), Ovarian): > 100 µM
GI50 (UO-31): 1.22 µM
Total growth inhibition (TGI) (UO-31): 2.54 µM
CC50 (UO-31; [2]): 5.25 µM
GI50 (M14): 1.72 µM
Total growth inhibition (TGI) (M14): 3.54 µM
% DPPH radical scavenging activity [1]: 59.2%
Total growth inhibition (TGI) (NCI-H23; NCI-H23, Non-Small Cell Lung): 3.74 µM
GI50 (NCI-H23; NCI-H23, Non-Small-Cell Lung): 1.71 µM
CC50 (NCI-H23; read-out: 50% lethal concentration (LC50), NCI-H23, Non-Small Cell Lung): 8.2 µM
GI50 (BT-549): 1.65 µM
Total growth inhibition (TGI) (BT-549): 3.23 µM
GI50 (SN12C; Renal): 1.98 µM
Total growth inhibition (TGI) (SN12C; Renal): 5.94 µM
CC50 (SN12C; read-out: 50% lethal concentration (LC50), Renal): 65.1 µM
Total growth inhibition (TGI) (NCI-H226; NCI-H226, Non-Small Cell Lung): 3.36 µM
GI50 (NCI-H226; NCI-H226, Non-Small-Cell Lung): 1.72 µM
CC50 (NCI-H226; read-out: 50% lethal concentration (LC50), NCI-H226, Non-Small Cell Lung): 6.55 µM
GI50 (K-562): 1.9 µM
CC50 (K-562; [2]): > 100 µM
GI50 (786-0): 2.3 µM
Total growth inhibition (TGI) (786-0): 5.59 µM
CC50 (786-0; [2]): > 100 µM
GI50 (RXF 393): 0.89 µM
Total growth inhibition (TGI) (RXF 393): 2.2 µM
CC50 (RXF 393; [2]): 4.98 µM
GI50 (SK-MEL-2): 1.57 µM
Total growth inhibition (TGI) (SK-MEL-2): 3.08 µM
GI50 (SK-MEL-5): 1.54 µM
Total growth inhibition (TGI) (SK-MEL-5): 2.89 µM
CC50 (SK-MEL-5; [2]): 5.41 µM
GI50 (CCRF-CEM; Leukemia): 0.64 µM
Total growth inhibition (TGI) (CCRF-CEM; Leukemia): > 100 µM
CC50 (CCRF-CEM; read-out: 50% lethal concentration (LC50), Leukemia): > 100 µM
GI50 (MCF7): 1.46 µM
Total growth inhibition (TGI) (MCF7): > 100 µM
CC50 (MCF7; [2]): > 100 µM
GI50 (SK-OV-3): 3.44 µM
Total growth inhibition (TGI) (SK-OV-3): 23.9 µM
CC50 (SK-OV-3; [2]): > 100 µM
GI50 (COLO 205): 1.95 µM
Total growth inhibition (TGI) (COLO 205): 4.24 µM
GI50 (SW-620): 1.69 µM
Total growth inhibition (TGI) (SW-620): 3.8 µM
CC50 (SW-620; [2]): 8.55 µM
GI50 (HT29): 1.7 µM
Total growth inhibition (TGI) (HT29): 3.38 µM
CC50 (HT29; [2]): 6.73 µM
GI50 (SF-295): 1.43 µM
Total growth inhibition (TGI) (SF-295): 2.78 µM
CC50 (SF-295; [2]): 5.39 µM
GI50 (SNB-19): 2.46 µM
Total growth inhibition (TGI) (SNB-19): 7.42 µM
CC50 (SNB-19; [2]): 34.6 µM
GI50 (DU-145): 2.04 µM
Total growth inhibition (TGI) (DU-145): 4.94 µM
CC50 (DU-145; [2]): 16.4 µM
GI50 (RPMI-8226): 0.92 µM
Total growth inhibition (TGI) (RPMI-8226): > 100 µM
CC50 (RPMI-8226; [2]): > 100 µM
GI50 (OVCAR-8): 1.35 µM
Total growth inhibition (TGI) (OVCAR-8): 2.84 µM
CC50 (OVCAR-8; [2]): 5.97 µM
Total growth inhibition (TGI) (A549/ATCC; Non-Small Cell Lung): 7.29 µM
GI50 (A549/ATCC; Non-Small-Cell Lung): 2.39 µM
CC50 (A549/ATCC; read-out: 50% lethal concentration (LC50), Non-Small Cell Lung): 62.2 µM

Source: paper PMC12298351, “Novel 3,19-(N-Phenyl-3-(4-fluorophenyl)-pyrazole) Acetal of Andrographolide Promotes Cell Cycle Arrest and Apoptosis in MDA-MB-231 Breast Cancer Cells” (Pharmaceuticals, 2025)
